Publication PMC7262777 (Journal of medicinal chemistry, 2020)
Values belong to the compound of their own block, whether it stands above or below them.

Columns and labels:
D3R [1] = target: T1, D3R (Homo sapiens, UniProt P35462); conditions: 10 μM
D4R = target: T2, D4R (Homo sapiens, UniProt P21917); assay: DiscoverX gpcrMAX panel, agonist mode, D4R; conditions: 10 μM
T2 sequence (P21917 1-419): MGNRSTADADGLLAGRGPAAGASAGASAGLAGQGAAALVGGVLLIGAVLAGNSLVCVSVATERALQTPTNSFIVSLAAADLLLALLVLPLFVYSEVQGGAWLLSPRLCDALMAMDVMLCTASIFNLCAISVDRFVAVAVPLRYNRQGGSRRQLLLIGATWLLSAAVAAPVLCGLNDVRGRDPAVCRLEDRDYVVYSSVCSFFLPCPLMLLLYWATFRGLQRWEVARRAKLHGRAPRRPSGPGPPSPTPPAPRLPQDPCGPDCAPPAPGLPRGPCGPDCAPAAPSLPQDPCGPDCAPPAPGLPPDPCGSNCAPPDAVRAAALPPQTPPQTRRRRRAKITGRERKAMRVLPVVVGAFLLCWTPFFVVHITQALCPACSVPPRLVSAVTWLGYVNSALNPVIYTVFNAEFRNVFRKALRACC

chemokine CXCR7 receptor = chemokine CXCR7 receptor (Homo sapiens, UniProt P25106); assay: DiscoverX gpcrMAX panel, agonist mode, CXCR7; conditions: 10 μM
Sequence of chemokine CXCR7 receptor (P25106 whole entry): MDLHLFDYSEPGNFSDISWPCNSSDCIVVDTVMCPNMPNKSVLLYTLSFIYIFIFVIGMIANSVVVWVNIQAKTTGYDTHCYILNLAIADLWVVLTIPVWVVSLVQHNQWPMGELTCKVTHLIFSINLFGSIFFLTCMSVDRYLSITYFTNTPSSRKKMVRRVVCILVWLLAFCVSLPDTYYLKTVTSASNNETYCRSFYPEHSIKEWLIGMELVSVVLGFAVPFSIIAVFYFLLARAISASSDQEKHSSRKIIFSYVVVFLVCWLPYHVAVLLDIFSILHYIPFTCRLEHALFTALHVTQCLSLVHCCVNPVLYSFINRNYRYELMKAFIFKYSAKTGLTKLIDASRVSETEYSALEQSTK

D2R = D2R (Homo sapiens, UniProt P14416); assay: β-arrestin recruitment DiscoverX PathHunter assay, agonist mode, D2R; assay type: cell-based
Sequence of D2R (P14416 whole entry): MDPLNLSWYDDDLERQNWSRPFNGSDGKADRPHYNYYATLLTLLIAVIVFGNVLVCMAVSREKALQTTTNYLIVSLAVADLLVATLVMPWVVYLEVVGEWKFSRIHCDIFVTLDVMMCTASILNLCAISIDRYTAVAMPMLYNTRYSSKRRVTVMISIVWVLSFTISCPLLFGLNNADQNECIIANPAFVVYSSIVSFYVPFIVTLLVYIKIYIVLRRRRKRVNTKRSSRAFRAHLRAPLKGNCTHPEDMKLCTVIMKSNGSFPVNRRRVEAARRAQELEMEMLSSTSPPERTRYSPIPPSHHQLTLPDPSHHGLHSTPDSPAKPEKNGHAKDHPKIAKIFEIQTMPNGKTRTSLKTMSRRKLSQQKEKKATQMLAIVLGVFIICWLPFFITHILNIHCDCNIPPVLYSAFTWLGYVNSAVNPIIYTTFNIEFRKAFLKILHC

human D2RL = human D2RL (Homo sapiens, UniProt P14416); assay: [3H]-methylspiperone competition binding, D2R membranes
Sequence of human D2RL (P14416 whole entry): as above

[2] = system: D3R-expressing dopaminergic neurons derived from human iPSCs; assay: MTT cell viability, protection from 6-OHDA-induced cell death
[3] = system: all other receptor subtypes (D1R, D2R, D4R, D5R); assay type: cell-based; conditions: β-arrestin recruitment
human 5-HT2B = human 5-HT2B (Homo sapiens, UniProt P41595); assay: Inositol 1-phosphate; assay type: cell-based
Sequence of human 5-HT2B (P41595 whole entry): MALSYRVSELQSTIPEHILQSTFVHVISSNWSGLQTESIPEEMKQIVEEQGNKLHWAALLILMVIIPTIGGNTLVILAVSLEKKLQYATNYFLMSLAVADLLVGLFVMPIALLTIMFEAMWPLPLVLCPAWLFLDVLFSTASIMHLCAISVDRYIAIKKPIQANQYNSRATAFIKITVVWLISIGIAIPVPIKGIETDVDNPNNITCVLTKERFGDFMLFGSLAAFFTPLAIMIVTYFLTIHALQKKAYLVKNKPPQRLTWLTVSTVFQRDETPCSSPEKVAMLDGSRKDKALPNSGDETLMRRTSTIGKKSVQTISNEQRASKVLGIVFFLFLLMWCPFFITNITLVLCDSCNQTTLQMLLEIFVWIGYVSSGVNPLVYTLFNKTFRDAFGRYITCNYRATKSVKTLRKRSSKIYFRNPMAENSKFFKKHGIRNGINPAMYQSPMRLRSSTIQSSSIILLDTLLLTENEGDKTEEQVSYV

pKa titration = assay type: physicochemical
HTR2A = HTR2A (Homo sapiens, UniProt P28223); assay: DiscoverX gpcrMAX panel, antagonist mode, HTR2A; assay type: cell-based; conditions: 10 μM, percent inhibition of EC80 reference agonist
Sequence of HTR2A (P28223 whole entry): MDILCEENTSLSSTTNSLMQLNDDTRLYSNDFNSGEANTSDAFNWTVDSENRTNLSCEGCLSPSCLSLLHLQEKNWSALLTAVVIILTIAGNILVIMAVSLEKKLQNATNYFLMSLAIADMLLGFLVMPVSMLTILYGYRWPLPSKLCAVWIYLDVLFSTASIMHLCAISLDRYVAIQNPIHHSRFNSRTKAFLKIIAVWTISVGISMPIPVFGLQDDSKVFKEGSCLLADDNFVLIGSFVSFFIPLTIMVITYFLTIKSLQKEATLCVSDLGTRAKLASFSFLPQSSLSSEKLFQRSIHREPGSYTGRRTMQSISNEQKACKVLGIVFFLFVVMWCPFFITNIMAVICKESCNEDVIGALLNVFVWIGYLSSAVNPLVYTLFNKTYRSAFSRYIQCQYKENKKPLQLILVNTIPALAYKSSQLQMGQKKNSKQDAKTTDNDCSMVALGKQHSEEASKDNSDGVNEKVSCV

bacteria = assay: Ames reverse mutation assay
[4] = target: D2R (short and long isoforms) (Homo sapiens, UniProt P14416); assay: DiscoverX gpcrMAX panel, agonist mode, D2R; conditions: 10 μM
Sequence of D2R (short and long isoforms) (P14416 1-414 isoform P14416-2): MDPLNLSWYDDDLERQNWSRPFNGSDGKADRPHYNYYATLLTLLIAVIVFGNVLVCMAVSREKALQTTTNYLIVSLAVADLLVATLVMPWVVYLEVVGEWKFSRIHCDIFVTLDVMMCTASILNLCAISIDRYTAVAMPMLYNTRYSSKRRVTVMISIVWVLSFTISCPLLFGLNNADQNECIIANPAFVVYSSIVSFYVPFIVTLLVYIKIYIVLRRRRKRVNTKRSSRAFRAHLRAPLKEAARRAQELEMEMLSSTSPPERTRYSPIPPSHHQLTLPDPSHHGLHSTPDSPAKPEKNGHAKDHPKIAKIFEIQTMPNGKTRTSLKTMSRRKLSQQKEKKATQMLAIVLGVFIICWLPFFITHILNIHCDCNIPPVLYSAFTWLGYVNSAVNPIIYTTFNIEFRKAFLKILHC

ADRA2C = target: T3, ADRA2C (Homo sapiens, UniProt P18825); assay: DiscoverX gpcrMAX panel, antagonist mode, ADRA2C; conditions: 10 μM, percent inhibition of EC80 reference agonist
T3 sequence (P18825 1-462): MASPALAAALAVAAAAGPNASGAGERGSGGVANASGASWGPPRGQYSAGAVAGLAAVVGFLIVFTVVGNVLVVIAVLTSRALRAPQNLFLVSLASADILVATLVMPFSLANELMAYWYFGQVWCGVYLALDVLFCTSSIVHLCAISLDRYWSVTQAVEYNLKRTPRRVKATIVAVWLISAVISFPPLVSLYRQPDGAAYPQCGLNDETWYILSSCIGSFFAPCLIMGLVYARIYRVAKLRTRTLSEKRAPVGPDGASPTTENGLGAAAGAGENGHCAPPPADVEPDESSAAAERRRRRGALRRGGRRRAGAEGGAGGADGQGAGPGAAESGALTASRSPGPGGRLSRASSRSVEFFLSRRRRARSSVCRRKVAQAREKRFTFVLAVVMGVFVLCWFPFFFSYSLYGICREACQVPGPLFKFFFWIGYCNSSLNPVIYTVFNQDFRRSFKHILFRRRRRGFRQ

D3R [5] = target: T1, D3R; assay: β-arrestin recruitment DiscoverX PathHunter assay, agonist mode, D3R; assay type: cell-based
168 known GPCRs = conditions: 10 μM
[6] = target: alpha2B-adrenergic receptor (Homo sapiens, UniProt P18089); conditions: 10 μM
Sequence of alpha2B-adrenergic receptor (P18089 whole entry): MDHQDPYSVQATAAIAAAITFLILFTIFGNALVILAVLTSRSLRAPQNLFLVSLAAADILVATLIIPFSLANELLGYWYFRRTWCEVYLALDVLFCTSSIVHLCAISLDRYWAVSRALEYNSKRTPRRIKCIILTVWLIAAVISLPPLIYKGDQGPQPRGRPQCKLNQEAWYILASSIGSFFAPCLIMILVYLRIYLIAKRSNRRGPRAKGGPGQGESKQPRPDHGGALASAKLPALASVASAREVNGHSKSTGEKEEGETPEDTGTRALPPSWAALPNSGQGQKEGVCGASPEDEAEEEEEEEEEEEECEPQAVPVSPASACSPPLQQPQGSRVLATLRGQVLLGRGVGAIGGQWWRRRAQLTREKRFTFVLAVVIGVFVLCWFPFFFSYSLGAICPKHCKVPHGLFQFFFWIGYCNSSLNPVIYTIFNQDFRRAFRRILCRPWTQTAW

T1 sequence (P35462 whole entry): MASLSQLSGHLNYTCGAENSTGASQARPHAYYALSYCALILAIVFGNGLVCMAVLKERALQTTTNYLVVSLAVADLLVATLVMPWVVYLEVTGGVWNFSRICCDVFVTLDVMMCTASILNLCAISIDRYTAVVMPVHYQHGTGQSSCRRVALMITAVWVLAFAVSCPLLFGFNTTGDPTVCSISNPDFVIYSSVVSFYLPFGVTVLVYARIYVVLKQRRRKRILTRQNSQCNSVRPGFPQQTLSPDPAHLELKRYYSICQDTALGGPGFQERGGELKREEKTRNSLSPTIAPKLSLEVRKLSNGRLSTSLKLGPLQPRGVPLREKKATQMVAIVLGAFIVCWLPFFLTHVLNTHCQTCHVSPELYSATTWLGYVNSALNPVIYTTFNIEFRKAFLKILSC

Compound: COc1ccc(OCCN2CCN(C(=O)c3ccc(OC)cc3)CC2)cc1 [Compound 1, (4-(2-(4-Methoxyphenoxy)ethyl)piperazin-1-yl)(4-methoxyphenyl)methanone]
- D2R agonist activity EC50 (D2R; β-arrestin recruitment (DiscoverX), agonist mode): No measurable agonist activity
- IC50 for inhibiting [3H]-methylspiperone binding to the D2R (human D2RL): no measurable ability to displace binding

Compound: NCCc1cc(O)c(O)cc1O [Compound 6-OHDA, 6-hydroxydopamine]
- reduction of cell viability ([2]; 30 μM, 24 hr, no drug (vehicle)): 62 ± 8%

Compound: COc1ccc(OCCN2CCN(C(=O)c3cc4ccccc4[nH]3)CC2)cc1 [Compound 20, (1H-Indol-2-yl)(4-(2-(4-methoxyphenoxy)ethyl)piperazin-1-yl)methanone]
- agonist efficacy at other dopamine receptor subtypes [3]: minimal agonist efficacy
- 5-HT2B agonist activity (IP1 accumulation) (human 5-HT2B; 10 μM): no agonist activity
- pKa (pKa titration): 8.62
- partial antagonist activity, HTR2A (HTR2A): 37%
- AMES reverse mutation assay (bacteria): no toxicity was observed
- agonist activity, D2R (gpcrMAX) [4]: small, but measurable agonist responses
- partial antagonist activity, ADRA2C (ADRA2C): 36%

Compound: COc1ccc2cc(C(=O)N3CCN(CCOc4cccnc4)CC3)[nH]c2c1 [Compound 58, (6-Methoxy-1H-indol-2-yl)(4-(2-(pyridin-3-yloxy)ethyl)piperazin-1-yl)methanone]
- D3R agonist activity EC50 (D3R [5]): single-digit nanomolar range

Compound: COc1ccc2[nH]c(C(=O)N3CCN(CCOc4cccnc4)CC3)cc2c1 [Compound 59, (5-Methoxy-1H-indol-2-yl)(4-(2-(pyridin-3-yloxy)ethyl)piperazin-1-yl)methanone]
- D2R agonist activity Emax (D2R; percentage of the maximum dopamine response): 97 ± 2.8 % control

Compound: CCCN[C@H]1CCc2nc(N)sc2C1 [Pramipexole, pramipexole]
- antagonist activity at any of the GPCRs tested (168 known GPCRs): did not exhibit antagonist activity
- agonist activity, D3R (gpcrMAX) (D3R [1]): full agonist activity
- agonist activity, alpha2B-adrenergic receptor (gpcrMAX) [6]: partial agonist activity
- agonist activity, D2R (gpcrMAX) [4]: full agonist activity
- concentration giving significant reduction in 6-OHDA-induced cell death ([2]; 24 h pretreatment, 30 μM 6-OHDA 24 h, MTT): 500 nM

Next, values leading:

- agonist activity, D3R (gpcrMAX) (D3R [1]): full agonist
- agonist activity, D4R (gpcrMAX) (D4R): partial agonist activities
- agonist activity, CXCR7 (gpcrMAX) (chemokine CXCR7 receptor): partial agonist activities
Compound: CCCN(CC[C@]1(O)C[C@H](NC(=O)c2ccc3ccccc3c2)C1)[C@H]1CCc2nc(N)sc2C1 [CJ-1639]

- IC50 (human 5-HT2B): 13 nM
Compound: Cn1ccc2cc3c(cc21)CCN3C(=O)Nc1cccnc1 [SB206553, reference compound]
